In patent US12661342B2, “Heteroaryl compounds and therapeutic uses thereof in conditions associated with the alteration of the activity of beta-glucocerebrosidase” (GT GAIN THERAPEUTICS SA, priority 2019, dated 2026):

Target: T1, β-glucocerebrosidase (Homo sapiens, UniProt P04062, L483P)
T1 construct: host or cells: human Gaucher disease patient fibroblasts GM08760A
T1 sequence (P04062 40-536 L483P): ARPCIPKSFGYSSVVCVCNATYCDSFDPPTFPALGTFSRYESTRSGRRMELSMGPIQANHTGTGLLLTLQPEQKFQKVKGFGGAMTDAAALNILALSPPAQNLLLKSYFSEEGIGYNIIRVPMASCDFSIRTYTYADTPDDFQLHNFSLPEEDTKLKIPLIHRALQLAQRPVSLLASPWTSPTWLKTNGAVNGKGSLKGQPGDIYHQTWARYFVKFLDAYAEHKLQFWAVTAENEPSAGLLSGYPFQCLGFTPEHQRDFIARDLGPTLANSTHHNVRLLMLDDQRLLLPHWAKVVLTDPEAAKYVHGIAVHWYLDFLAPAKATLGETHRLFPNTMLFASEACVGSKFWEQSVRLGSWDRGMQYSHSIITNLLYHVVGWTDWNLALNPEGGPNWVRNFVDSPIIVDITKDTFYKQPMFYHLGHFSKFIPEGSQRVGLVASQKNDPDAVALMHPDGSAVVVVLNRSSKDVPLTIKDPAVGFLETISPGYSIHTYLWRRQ
Experiment: Enhancement of β-glucocerebrosidase activity measured in Gaucher disease fibroblasts (4-MU-β-D-glucopyranoside substrate, intact cells)
Format: cell-based
Set-up: key: Increase in comparison with non-treated of >2.0 fold is shown as A; Increase in comparison with non-treated of >1.7-2.0 fold is shown as B; Increase in comparison with non-treated of 1.2-1.7 fold is shown as C; D means that no increase compared with non-treated cells was detected in this method
Details: GBA fibroblasts bearing L444P (GM08760A, homozygous p.L444P); compound at concentrations between 6 and 50 μM; 4 days incubation
Procedure: Human fibroblasts from a patient with Gaucher disease homozygous for p.L444P mutation (GM08760A) were purchased from Coriell Institute for Medical Research (Camden, NJ, USA).
Fibroblasts were seeded at 5×10^3 cells per well in 96-well cell culture plates (Corning, NY, USA) in Dulbecco's Modified Eagle's Media (DMEM) supplemented with 10% of fetal bovine serum (FBS), 1% penicillin/streptomycin (P/S) (Thermo Fisher Scientific, Waltham, MA, USA) and grown at 37° C., 5% CO2 overnight for cell attachment. Subsequently, cells were incubated in the absence or presence of the compounds at the desired concentration for 4 days. After incubation, cells were washed twice with phosphate-buffered saline (PBS) and enzyme activity assay was performed.
β-glucocerebrosidase activity in intact cultured cells was measured by using 4-methylumbelliferyl-β-D-glucopyranoside substrate (Apollo Scientific, UK). Briefly, cells were incubated with 4-MU-β-D-glucopyranoside in 0.1 M acetate buffer pH=4 at 37° C. for 1 hour. The reaction was stopped by adding 200 μL at 100 mM glycine-NaOH pH=10.7. The liberated 4-MU was measured on a GloMax Discover plate reader (Promega, Madison, WI, USA) with and excitation at 340 nm and emission at 460 nm. Enzyme activities were expressed in treated cells as X-fold increase in comparison with non-treated cells (X=1 represents no enhancement).
The capacity of the compounds of the disclosure to produce an increase in enzyme activity in GBA fibroblasts bearing L444P at concentrations between 6 and 50 μM is denoted as follows: • Increase in comparison with non-treated of >2.0 fold is shown as A • Increase in comparison with non-treated of >1.7-2.0 fold is shown as B • Increase in comparison with non-treated of 1.2-1.7 fold is shown as C • D means that no increase compared with non-treated cells was detected in this method • ND means “not determined”

Row | Compound | Range: increase in enzyme activity in comparison with non-treated cells (Enzyme activity assay for exemplified compounds) | Range: increase in enzyme activity in comparison with non-treated cells (Enzyme activity assay for compounds of Examples 33-141)
1 | Nc1nc2c(c(Nc3ccccc3O)n1)CCN(Cc1ccccc1)C2 [Example 25, 2-((2-Amino-7-benzyl-5,6,7,8-tetrahydropyrido[3,4-d]pyrimidin-4-yl)amino)phenol] | B (Increase in comparison with non-treated of >1.7-2.0 fold is shown as B) | 
2 | COc1ccc(Nc2nc(N)nc3c2CCN(Cc2ccccc2)C3)cc1 [Example 26, 7-Benzyl-N4-(4-methoxyphenyl)-5,6,7,8-tetrahydropyrido[3,4-d]pyrimidine-2,4-diamine] | C (Increase in comparison with non-treated of 1.2-1.7 fold is shown as C) | 
3 | COc1cccc(Nc2nc(N)c3c(n2)CN(Cc2ccccc2)CC3)c1 [Example 27, 7-Benzyl-N^2-(3-methoxyphenyl)-5,6,7,8-tetrahydropyrido[3,4-d]pyrimidine-2,4-diamine] | A (Increase in comparison with non-treated of >2.0 fold is shown as A) | 
4 | COc1ccccc1Nc1nc(N)c2c(n1)CN(Cc1ccccc1)CC2 [Example 28, 7-Benzyl-N2-(2-methoxyphenyl)-5,6,7,8-tetrahydropyrido[3,4-d]pyrimidine-2,4-diamine] | C (Increase in comparison with non-treated of 1.2-1.7 fold is shown as C) | 
5 | Nc1nc(Nc2ccccc2O)nc2c1CCN(Cc1ccccc1)C2 [Example 29, 2-((4-Amino-7-benzyl-5,6,7,8-tetrahydropyrido[3,4-d]pyrimidin-2-yl)amino)phenol] | B (Increase in comparison with non-treated of >1.7-2.0 fold is shown as B) | 
6 | COc1ccc(Nc2nc(N)c3c(n2)CN(Cc2ccccc2)CC3)cc1 [Example 30, 7-Benzyl-N2-(4-methoxyphenyl)-5,6,7,8-tetrahydropyrido[3,4-d]pyrimidine-2,4-diamine] | C (Increase in comparison with non-treated of 1.2-1.7 fold is shown as C) | 
7 | COc1cccc(Nc2nc(N)c3c(n2)CCN(Cc2ccccc2)C3)c1.Cl [Example 31, 6-Benzyl-N2-(3-methoxyphenyl)-5,6,7,8-tetrahydropyrido[4,3-d]pyrimidine-2,4-diamine hydrochloride] | B (Increase in comparison with non-treated of >1.7-2.0 fold is shown as B) | 
8 | Nc1nc2c(c(Nc3ccccc3O)n1)CCN(c1ccccc1)C2 [Example 32, 2-((2-Amino-7-phenyl-5,6,7,8-tetrahydropyrido[3,4-d]pyrimidin-4-yl)amino)phenol] | B (Increase in comparison with non-treated of >1.7-2.0 fold is shown as B) | 
9 | CN(C(=O)c1cc(N)nc(N[C@H]2CCCC[C@@H]2O)n1)c1ccccc1 [Example 33, 6-Amino-2-(((1S,2S)-2-hydroxycyclohexyl)amino)-N-methyl-N-phenylpyrimidine-4-carboxamide] |  | D
10 | COc1ccccc1Nc1cc(C(=O)N2CCN(c3ccccc3)CC2)nc(N)n1 [Example 34, (2-Amino-6-((2-methoxyphenyl)amino)pyrimidin-4-yl)(4-phenylpiperazin-1-yl)methanone] |  | D
11 | Nc1cc(C(=O)N2CCc3ccccc3C2)nc(Nc2ccccc2O)n1 [Example 35, (6-Amino-2-((2-hydroxyphenyl)amino)pyrimidin-4-yl)(3,4-dihydroisoquinolin-2(1H)-yl)methanone] |  | C (Increase in comparison with non-treated of 1.2-1.7 fold is shown as C)
12 | Nc1cc(C(=O)N2CCCc3ccccc32)nc(Nc2ccccc2O)n1 [Example 36, (6-Amino-2-((2-hydroxyphenyl)amino)pyrimidin-4-yl)(3,4-dihydroquinolin-1(2H)-yl)methanone] |  | C (Increase in comparison with non-treated of 1.2-1.7 fold is shown as C)
13 | Nc1cc(C(=O)N2CCc3ccccc32)nc(Nc2ccccc2O)n1 [Example 37, (6-Amino-2-((2-hydroxyphenyl)amino)pyrimidin-4-yl)(indolin-1-yl)methanone] |  | D
14 | COc1cccc(Nc2nc(N)cc(C(=O)N3Cc4ccccc4C3)n2)c1 [Example 38, (6-Amino-2-((3-methoxyphenyl)amino)pyrimidin-4-yl)(isoindolin-2-yl)methanone] |  | D
15 | Nc1cc(C(=O)N2Cc3ccccc3C2)nc(Nc2cccc(O)c2)n1 [Example 39, (6-Amino-2-((3-hydroxyphenyl)amino)pyrimidin-4-yl)(isoindolin-2-yl)methanone] |  | C (Increase in comparison with non-treated of 1.2-1.7 fold is shown as C)
16 | Cc1cccc(Nc2nc(N)cc(C(=O)N3Cc4ccccc4C3)n2)c1 [Example 40, (6-Amino-2-(m-tolylamino)pyrimidin-4-yl)(isoindolin-2-yl)methanone] |  | C (Increase in comparison with non-treated of 1.2-1.7 fold is shown as C)
17 | Nc1cc(C(=O)N2Cc3ccccc3C2)nc(Nc2cccc(Cl)c2)n1 [Example 41] |  | D
18 | CN(C(=O)c1cc(N)nc(Nc2ccccc2O)c1)C1CCc2ccccc2C1 (centres unmarked) [Example 42, 2-Amino-6-((2-hydroxyphenyl)amino)-N-methyl-N-(1,2,3,4-tetrahydronaphthalen-2-yl)isonicotinamide] |  | C (Increase in comparison with non-treated of 1.2-1.7 fold is shown as C)
19 | CN(C(=O)c1cc(N)nc(Nc2ccccc2O)c1)c1ccccc1 [Example 43, 2-Amino-6-((2-hydroxyphenyl)amino)-N-methyl-N-phenylisonicotinamide] |  | C (Increase in comparison with non-treated of 1.2-1.7 fold is shown as C)
20 | CN(C(=O)c1cc(N)nc(Nc2ccccc2O)c1)C1Cc2ccccc2C1 [Example 44, 2-Amino-N-(2,3-dihydro-1H-inden-2-yl)-6-((2-hydroxyphenyl)amino)-N-methyl-isonicotinamide] |  | C (Increase in comparison with non-treated of 1.2-1.7 fold is shown as C)
21 | Nc1cc(C(=O)NC2CCc3ccccc3C2)cc(Nc2ccccc2O)n1 (centres unmarked) [Example 45, 2-Amino-6-((2-hydroxyphenyl)amino)-N-(1,2,3,4-tetrahydronaphthalen-2-yl)isonicotinamide] |  | C (Increase in comparison with non-treated of 1.2-1.7 fold is shown as C)
22 | Nc1cc(C(=O)Nc2ccccc2)cc(Nc2ccccc2O)n1 [Example 46, 2-Amino-6-((2-hydroxyphenyl)amino)-N-phenylisonicotinamide] |  | B (Increase in comparison with non-treated of >1.7-2.0 fold is shown as B)
23 | Nc1cc(C(=O)NC2Cc3ccccc3C2)cc(Nc2ccccc2O)n1 [Example 47, 2-Amino-N-(2,3-dihydro-1H-inden-2-yl)-6-((2-hydroxyphenyl)amino)isonicotinamide] |  | C (Increase in comparison with non-treated of 1.2-1.7 fold is shown as C)
